From patent US8802695B2, “Apoptosis signal-regulating kinase 1 inhibitors” (Takeda Pharmaceutical Company Limited, priority 2010, dated 2014)

What was measured:
ASK1 [1] = biological target: T1, ASK1 (Homo sapiens (Human), UniProt Q99683); experiment: Homogeneous Time-Resolved Fluorescence (HTRF) assay for inhibitory effect against ASK1 (Example C; KinEASE STK S3 kit); format: biochemical; conditions: 25 nM ASK1, 100 μM ATP, read-out: Enzyme Activity C IC50
From the text: (§1) The inhibitory effect of the compound of the invention on ASK1 may be evaluated by evaluating the phosphorylating activity of the enzyme on a known substrate with or without the presence of the test compound. Example B provides such an assay where myelin basic protein (Wako) is used as substrate and detection is by scintillation counting. It should be understood other substrates and detection mechanism may be used. A commercially available a kit, Cisbio's HTRF® KinEASE™ STK kit, has shown to be useful for evaluating ASK1 activity. The assay uses an anti-phosphoseric specific, Eu^3+-Cryptate labeled antibody to mark the phosphorylated product of ASK1 on a biotinylated kinase substrate, and detection is by time resolved fluorescence using XL665 labeled streptavidin. The fluorescence intensity is proportional to the amount of product formation. Example C provides the assay protocol.
Homogeneous Time-Resolved Fluorescence (HTRF) Assay for Measuring the Inhibitory Effect of Exemplified Compounds of the Invention Against ASK1
Recombinant human ASK1 is purchased from Millipore (Cat #14-606). The enzymatic assay of ASK1 is set up by using HTRF® KinEASE™ STK S3 kit, the Universal Assay for Serine/Threonine Kinases kit from CisBio.
The inhibitory properties of compounds to ASK1 may be determined using a white 384-well-plate format under the following reaction conditions: 25 nM ASK1, 1 μM CisBio STK S3-biotion peptide, 100 μM ATP, and 1%-2% DMSO in kinase assay buffer of 50 mM HEPES, pH 7.3, 10 mM NaCl, 10 mM MgCl2, 0.01% Brij35, 0.2 mM EDTA, and 1 mM DTT. Reaction product is determined quantitatively by HTRF after the addition of detection reagent SA-XL665 and STK-antibody-cryptate.
The assay reaction may be initiated as follows: 2 μl of the mixture of 3 μM CisBio STK S3-biotion peptide and 300 μM ATP with 2 μl of test compound (2 fold serial dilutions for 11 data points for each inhibitor) containing 3%-6% DMSO are added to each well of the plate, followed by the addition of 2 μL of 75 nM ASK1 to initiate the reaction (final enzyme concentration was 25 nM for ASK1). The reaction mixture may then be incubated at room temperature for 1 hour, and quenched and developed by the addition of 6 μL of 100-fold diluted STK-antibody-Cryptate and 250 nM SA-XL665 in Cisbio HTRF detection buffer (50 mM HEPES, pH7.0, 0.1% BSA, 0.8 M KF, and 20 mM EDTA). The fluorescence intensity is measured at 620 nm (Cryptate) and 665 nm (XL665) after a 1-2 hour incubation at room temperature. A ratio is calculated (665/620) for each well and is fitted to the standard IC50 curve to determine inhibition constants (IC50).
Target sequence in this assay (Q99683 649-946): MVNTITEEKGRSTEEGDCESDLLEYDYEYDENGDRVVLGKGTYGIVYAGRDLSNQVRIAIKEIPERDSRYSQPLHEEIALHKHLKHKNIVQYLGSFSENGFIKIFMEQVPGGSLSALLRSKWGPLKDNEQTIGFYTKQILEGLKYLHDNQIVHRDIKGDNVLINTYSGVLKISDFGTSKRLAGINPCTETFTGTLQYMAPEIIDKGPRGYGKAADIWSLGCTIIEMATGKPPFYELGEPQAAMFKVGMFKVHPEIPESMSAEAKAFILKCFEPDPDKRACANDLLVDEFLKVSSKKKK

ASK1 [2] = biological target: T1, ASK1; experiment: Scintillation assay for inhibitory effect against ASK1 (Example B; myelin basic protein substrate, [γ-32P]ATP); format: biochemical; conditions: 2.5 μM ATP solution, read-out: Enzyme Activity B IC50
From the text: as §1
Target sequence in this assay (Q99683 650-1374): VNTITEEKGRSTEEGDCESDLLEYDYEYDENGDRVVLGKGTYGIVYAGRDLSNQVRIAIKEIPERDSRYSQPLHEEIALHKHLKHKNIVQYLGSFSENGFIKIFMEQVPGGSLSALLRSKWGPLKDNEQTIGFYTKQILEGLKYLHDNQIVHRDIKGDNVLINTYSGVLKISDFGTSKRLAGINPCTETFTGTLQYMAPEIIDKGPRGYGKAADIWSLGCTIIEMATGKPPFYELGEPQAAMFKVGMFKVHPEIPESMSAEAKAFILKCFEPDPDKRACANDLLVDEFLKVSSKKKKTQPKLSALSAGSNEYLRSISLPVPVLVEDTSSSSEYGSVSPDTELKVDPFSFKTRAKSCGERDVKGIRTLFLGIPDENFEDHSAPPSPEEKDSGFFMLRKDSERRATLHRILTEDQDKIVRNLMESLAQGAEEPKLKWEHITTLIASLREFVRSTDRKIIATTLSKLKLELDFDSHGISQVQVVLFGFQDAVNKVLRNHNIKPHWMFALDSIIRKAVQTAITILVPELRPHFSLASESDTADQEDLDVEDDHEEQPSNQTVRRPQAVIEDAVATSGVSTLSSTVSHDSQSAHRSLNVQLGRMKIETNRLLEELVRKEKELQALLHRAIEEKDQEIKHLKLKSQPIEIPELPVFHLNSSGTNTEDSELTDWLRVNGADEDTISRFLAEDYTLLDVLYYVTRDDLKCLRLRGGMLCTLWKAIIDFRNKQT
Cloning of cDNA encoding human ASK1 was conducted by PCR using primers, 5′-[…] […]-3′ (SEQ ID NO: 1) and 5′-AAAGCGGCCGCTCAA […]-3′ (SEQ ID NO: 2), from human heart cDNA library (Becton, Dickinson and Company). The PCR product was subjected to agarose gel (1%) electrophoresis, a 2.2 kb DNA fragment containing an ASK1 gene was recovered from the gel, and then digested with restriction enzymes, NotI and SalI, and inserted into a plasmid pFASTBAC1 (Invitrogen) to prepare a plasmid pFB-ASK1. The insert was verified by sequencing. Recombinant baculovirus was prepared according to the procedure of the Bac-to-Bac baculovirus expression system (Invitrogen).
Sf-21 cells were seeded to achieve 1×10^6 cells/mL in 100 mL of Sf-900 II SFM medium (Invitrogen) which contains 10% fetal calf serum and then cultured at 27° C. for 24 hrs. To express ASK1 in cells, 0.15 mL of the recombinant baculovirus virus stock was added to cells, and the then cultured for 60 hrs. The cells were separated from the culture solution by centrifugation at 3000 rpm for 10 min and washed once with PBS. The cells were suspended in 10 mL of lysis buffer (25 mM HEPES (pH 7.5), 1% Triton X, 130 mM NaCl, 1 mM EDTA, 1 mM DTT, 25 mM (3-glycerophosphate, Protease inhibitor complete (Roche), 1 mM sodium orthovanadate) and ruptured by four times of treatment with a homogenizer (POLYTRON) at 20000 rpm for 30 seconds. Active ASK1 protein was purified from a supernatant obtained by centrifugal separation at 40000 rpm for 45 min using anti-FLAG M2 Affinity Gel (Sigma).
Scintillation Assay for Measuring the Inhibitory Effect of Exemplified Compounds of the Invention Against ASK1
The test compounds (2.5 μL) dissolved in DMSO were added to wells containing 37.5 μL of the reaction solution (25 mM HEPES (pH 7.5), 10 mM magnesium acetate, 1 mM DTT) including 30 ng of active ASK1 protein and 1 μg of myelin basic protein (Wako), and incubated at room temperature for 5 min. To start the reaction, 10 μL of ATP solution (2.5 μM ATP, 0.1 μCi [γ-^32P]ATP) was added to wells. After incubating at room temperature for 30 min, the reaction was terminated by adding 50 μL of 20% TCA solution. The reaction solution was incubated at 4° C. for 30 min and an acid-insoluble fraction was transferred onto a GF/C filter (Packard) with Cell Harvester (Packard), and washed with 250 mM phosphoric acid. After drying at 45° C. for 60 min., 40 μL of Microscint 0 (Packard) was added and the radioactivity was measured with TopCount (Packard). The concentrations (IC50 value) of the test compounds necessary for 50% inhibition of kinase activity were calculated by PRISM 3.0 (Graphpad Software).

Compound | IC50 (ASK1 [1]) [µM] | IC50 (ASK1 [2]) [µM] | melting point [°C]
CCn1ccc2cnc(NC(=O)c3ccc([C@@](C)(O)CO)c(C)c3)cc21 [Compound 27, (R)-4-(1,2-dihydroxypropan-2-yl)-N-(1-ethyl-1H-pyrrolo[3,2-c]pyridin-6-yl)-3-methylbenzamide] | 0.528 |  | 
C[C@](O)(CO)c1ccc(C(=O)Nc2cc3c(ccn3C3CC3)cn2)cc1 [Compound 17, (R)—N-(1-cyclopropyl-1H-pyrrolo[3,2-c]pyridin-6-yl)-4-(1,2-dihydroxypropan-2-yl)benzamide] | 0.214 | 0.069 | 
CC(C)(O)c1ccc(C(=O)Nc2cc3c(ccn3CS(C)(=O)=O)cn2)cc1 [Compound 21, 4-(2-hydroxypropan-2-yl)-N-(1-(methylsulfonylmethyl)-1H-pyrrolo[3,2-c]pyridin-6-yl)benzamide] | 12.4 |  | 
CCn1cc(Br)c2cnc(NC(=O)c3ccc([C@@](C)(O)CO)cc3)cc21 [Compound 20, (R)—N-(3-bromo-1-ethyl-1H-pyrrolo[3,2-c]pyridin-6-yl)-4-(1,2-dihydroxypropan-2-yl)benzamide] | 0.01 | 0.002 | 
CC(C)(O)c1ccc(C(=O)Nc2cc3c(cn2)c(Br)cn3CC2CC2)cc1 [Compound 10, N-(3-bromo-1-(cyclopropylmethyl)-1H-pyrrolo[3,2-c]pyridin-6-yl)-4-(2-hydroxypropan-2-yl)benzamide] | 0.062 | 0.003 | 
C[C@](O)(CO)c1ccc(C(=O)Nc2cc3c(cn2)c(Cl)cn3C2CC2)cc1 [Compound 23, (R)—N-(3-chloro-1-cyclopropyl-1H-pyrrolo[3,2-c]pyridin-6-yl)-4-(1,2-dihydroxypropan-2-yl)benzamide] | 0.006 | 0.004 | 
Cn1cc(Br)c2cnc(NC(=O)c3ccc([C@@](C)(O)CO)cc3)cc21 [Compound 16, (R)—N-(3-bromo-1-methyl-1H-pyrrolo[3,2-c]pyridin-6-yl)-4-(1,2-dihydroxypropan-2-yl)benzamide] | 0.02 | 0.007 | 
CC(C)(CO)c1ccc(C(=O)Nc2cc3c(cn2)c(Cl)cn3C2CC2)cc1 [Compound 28, N-(3-chloro-1-cyclopropyl-1H-pyrrolo[3,2-c]pyridin-6-yl)-4-(1-hydroxy-2-methylpropan-2-yl)benzamide] | 0.016 |  | 
CC(C)(O)c1ccc(C(=O)Nc2cc3c(ccn3CC3CC3)cn2)cc1 [Compound 9, N-(1-(cyclopropylmethyl)-1H-pyrrolo[3,2-c]pyridin-6-yl)-4-(2-hydroxypropan-2-yl)benzamide] | 0.237 | 0.081 | 
CCn1cc(C)c2cnc(NC(=O)c3ccc([C@@](C)(O)CO)cc3)cc21 [Compound 18, (R)-4-(1,2-dihydroxypropan-2-yl)-N-(1-ethyl-3-methyl-1H-pyrrolo[3,2-c]pyridin-6-yl)benzamide] | 0.017 | 0.014 | 
CCn1cc(Cl)c2cnc(NC(=O)c3ccc([C@@](C)(O)CO)c(C)c3)cc21 [Compound 33, (R)—N-(3-chloro-1-ethyl-1H-pyrrolo[3,2-c]pyridin-6-yl)-4-(1,2-dihydroxypropan-2-yl)-3-methylbenzamide] | 0.041 |  | 
C[C@](O)(CO)c1ccc(C(=O)Nc2cc3c(cn2)c(Br)cn3C2CC2)cc1 [Compound 22, (R)—N-(3-bromo-1-cyclopropyl-1H-pyrrolo[3,2-c]pyridin-6-yl)-4-(1,2-dihydroxypropan-2-yl)benzamide] | 0.007 | 0.002 | 
CCn1ccc2cnc(NC(=O)c3ccc([C@@](C)(O)CO)cc3)cc21 [Compound 13, (R)-4-(1,2-dihydroxypropan-2-yl)-N-(1-ethyl-1H-pyrrolo[3,2-c]pyridin-6-yl)benzamide] | 0.064 | 0.055 | 

Continued, values first:

IC50 (ASK1 [1]) [µM] | IC50 (ASK1 [2]) [µM] | melting point [°C] | Compound
0.01 | 0.005 |  | Cn1cc(Br)c2cnc(NC(=O)c3ccc(C(C)(C)O)cc3)cc21 [Compound 15, N-(3-bromo-1-methyl-1H-pyrrolo[3,2-c]pyridin-6-yl)-4-(2-hydroxypropan-2-yl)benzamide]
0.008 | 0.003 |  | CCn1cc(Br)c2cnc(NC(=O)c3ccc(C(C)(C)O)cc3)cc21 [Compound 11, N-(3-bromo-1-ethyl-1H-pyrrolo[3,2-c]pyridin-6-yl)-4-(2-hydroxypropan-2-yl)benzamide]
0.122 |  |  | Cn1c(Cl)c(Cl)c2cnc(NC(=O)c3ccc([C@@](C)(O)CO)cc3)cc21 [Compound 32, (R)—N-(2,3-dichloro-1-methyl-1H-pyrrolo[3,2-c]pyridin-6-yl)-4-(1,2-dihydroxypropan-2-yl)benzamide]
0.018 | 0.011 |  | Cn1cc(Cl)c2cnc(NC(=O)c3ccc(C(C)(C)O)cc3)cc21 [Compound 24, N-(3-chloro-1-methyl-1H-pyrrolo[3,2-c]pyridin-6-yl)-4-(2-hydroxypropan-2-yl)benzamide]
0.029 | 0.019 |  | Cc1cn(C)c2cc(NC(=O)c3ccc(C(C)(C)O)cc3)ncc12 [Compound 19, N-(1,3-dimethyl-1H-pyrrolo[3,2-c]pyridin-6-yl)-4-(2-hydroxypropan-2-yl)benzamide]
0.019 |  | 210 to 212 | Cn1cc(Cl)c2cnc(NC(=O)c3ccc([C@@](C)(O)CO)cc3)cc21 [Compound 31, (R)—N-(3-chloro-1-methyl-1H-pyrrolo[3,2-c]pyridin-6-yl)-4-(1,2-dihydroxypropan-2-yl)benzamide]
0.02 | 0.007 |  | CCn1cc(C)c2cnc(NC(=O)c3ccc(C(C)(C)O)cc3)cc21 [Compound 12, N-(1-ethyl-3-methyl-1H-pyrrolo[3,2-c]pyridin-6-yl)-4-(2-hydroxypropan-2-yl)benzamide]
0.146 | 0.06 |  | Cn1c(Cl)c(Cl)c2cnc(NC(=O)c3ccc(C(C)(C)O)cc3)cc21 [Compound 25, N-(2,3-dichloro-1-methyl-1H-pyrrolo[3,2-c]pyridin-6-yl)-4-(2-hydroxypropan-2-yl)benzamide]
 |  | 205 to 208 | Cn1c(Cl)c(Cl)c2cnc(NC(=O)c3ccc([C@](C)(O)CO)cc3)cc21 [Compound 30, (S)—N-(2,3-dichloro-1-methyl-1H-pyrrolo[3,2-c]pyridin-6-yl)-4-(1,2-dihydroxypropan-2-yl)benzamide]
